Species on record: Rattus norvegicus
Test: Open TG-GATES - Regimen: Daily Repeat
Type: toxicity, organism-based, Sprague-Dawley
Design: regimen Daily Repeat, gender Male, age 6 weeks
Conditions: in vivo, po, 30 mg/kg, […], route gavage, dose level Low; for KIDNEY_L / KIDNEY_R / KIDNEY_TOTAL: tissue Kidney; for LIVER: tissue Liver; for A/G / ALP / ALT / AST / BUN / CRE / Ca / Cl / DBIL / GLC / IP / K / LDH / Na / PL / RALB / TBIL / TC / TG / TP / gamma-GTP: tissue Plasma

Compound `CCOC(=O)C(C)(C)Oc1ccc(Cl)cc1` [CLOFIBRATE] has a Lym (tissue Blood, time 28 day) of 81.8%, an MCH (tissue Blood, time 28 day) of 18.5 pg and an MCHC (tissue Blood, time 28 day) of 34.7%. The MCV (tissue Blood, time 28 day) was 53.4 fL, the Mono (tissue Blood, time 28 day) was 2.6% and the Neu (tissue Blood, time 28 day) was 14.2%. For the same compound, the PT (tissue Blood, time 28 day) was 12.4 s, the Plat (tissue Blood, time 28 day) was 119.1 x10_4/uL and the RBC (tissue Blood, time 28 day) was 800 x10_4/ul. It also gave a Ret (tissue Blood, time 28 day) of 2.2%, a WBC (tissue Blood, time 28 day) of 140.9 x10_2/uL and a KIDNEY_L (time 7 day) of 1.1 g. The KIDNEY_R (time 7 day) was 1.1 g, the KIDNEY_TOTAL (time 7 day) was 2.2 g and the KIDNEY_L (time 14 day) was 1.3 g. For the same compound, the KIDNEY_R (time 14 day) was 1.3 g, the KIDNEY_TOTAL (time 14 day) was 2.6 g and the KIDNEY_L (time 28 day) was 1.5 g. The KIDNEY_R (time 28 day) was 1.5 g, the KIDNEY_TOTAL (time 28 day) was 3 g and the LIVER (time 7 day) was 12.4 g. For the same compound, the LIVER (time 14 day) was 16 g, the LIVER (time 28 day) was 16.9 g and the A/G (time 7 day) was 1.6. For the same compound, the ALP (time 7 day) was 883.2 IU/L, the ALT (time 7 day) was 35.8 IU/L and the AST (time 7 day) was 72 IU/L. The BUN (time 7 day) was 16 mg/dL, the CRE (time 7 day) was 0.4 mg/dL and the Ca (time 7 day) was 10.4 mg/dL. The Cl (time 7 day) was 103.2 meq/L, the DBIL (time 7 day) was 0.07 mg/dL and the GLC (time 7 day) was 213 mg/dL. It also gave an IP (time 7 day) of 6.8 mg/dL, a K (time 7 day) of 3.5 meq/L and an LDH (time 7 day) of 245 IU/L. For the same compound, the Na (time 7 day) was 141.4 meq/L, the PL (time 7 day) was 127 mg/dL and the RALB (time 7 day) was 3.6 g/dL. The TBIL (time 7 day) was 0.1 mg/dL, the TC (time 7 day) was 60 mg/dL and the TG (time 7 day) was 96 mg/dL. For the same compound, the TP (time 7 day) was 5.8 g/dL, the gamma-GTP (time 7 day) was 0.8 IU/L and the A/G (time 14 day) was 1.4. It also gave an ALP (time 14 day) of 845.6 IU/L, an ALT (time 14 day) of 32.4 IU/L and an AST (time 14 day) of 56.8 IU/L. For the same compound, the BUN (time 14 day) was 16.4 mg/dL, the CRE (time 14 day) was 0.4 mg/dL and the Ca (time 14 day) was 10.4 mg/dL. The Cl (time 14 day) was 101.4 meq/L, the DBIL (time 14 day) was 0.088 mg/dL and the GLC (time 14 day) was 229.8 mg/dL. It also gave an IP (time 14 day) of 7 mg/dL, a K (time 14 day) of 4 meq/L and an LDH (time 14 day) of 183.4 IU/L. For the same compound, the Na (time 14 day) was 140.2 meq/L, the PL (time 14 day) was 145.6 mg/dL and the RALB (time 14 day) was 3.4 g/dL. For the same compound, the TBIL (time 14 day) was 0.1 mg/dL, the TC (time 14 day) was 64.8 mg/dL and the TG (time 14 day) was 135 mg/dL. For the same compound, the TP (time 14 day) was 5.8 g/dL, the gamma-GTP (time 14 day) was 0.8 IU/L and the A/G (time 28 day) was 1.4. The ALP (time 28 day) was 741.4 IU/L, the ALT (time 28 day) was 41 IU/L and the AST (time 28 day) was 68.4 IU/L. It also gave a BUN (time 28 day) of 14.6 mg/dL, a CRE (time 28 day) of 0.4 mg/dL and a Ca (time 28 day) of 10.3 mg/dL. The Cl (time 28 day) was 102.2 meq/L, the DBIL (time 28 day) was 0.084 mg/dL and the GLC (time 28 day) was 207.8 mg/dL. For the same compound, the IP (time 28 day) was 6.1 mg/dL, the K (time 28 day) was 3.9 meq/L and the LDH (time 28 day) was 165.8 IU/L. It also gave a Na (time 28 day) of 140.4 meq/L, a PL (time 28 day) of 134 mg/dL and an RALB (time 28 day) of 3.4 g/dL. The TBIL (time 28 day) was 0.1 mg/dL, the TC (time 28 day) was 61.6 mg/dL and the TG (time 28 day) was 121.6 mg/dL. It also gave a TP (time 28 day) of 5.9 g/dL and a gamma-GTP (time 28 day) of 0.8 IU/L.

— ChEMBL document CHEMBL3885861, “Open TG-GATES”
